Results published in the kinase profiling compilation of Christmann-Franck et al. (2016).

Legend:
Assay in all cases: KINOMEscan competition binding
MAP4K5 (human) = MAP4K5 (human) (UniProt Q9Y4K4); conditions: compound 1.0 µM
MAK (human) = MAK (human) (UniProt P20794); conditions: compound 1.0 µM
[1] = system: KIT (human), P10721 [A829P]; conditions: compound 1.0 µM
[2] = target: JAK2 JH1 catalytic (human) (UniProt O60674); conditions: compound 1.0 µM
PTK2B (human) = PTK2B (human) (UniProt Q14289); conditions: compound 1.0 µM
PAK1 (human) = PAK1 (human) (UniProt Q13153); conditions: compound 1.0 µM
SIK2 (human) = SIK2 (human) (UniProt Q9H0K1); conditions: compound 1.0 µM
EPHB1 (human) = EPHB1 (human) (UniProt P54762); conditions: compound 1.0 µM
PLK3 (human) = PLK3 (human) (UniProt Q9H4B4); conditions: compound 1.0 µM
Sequence of PLK3 (human) (Q9H4B4 whole entry, looked up): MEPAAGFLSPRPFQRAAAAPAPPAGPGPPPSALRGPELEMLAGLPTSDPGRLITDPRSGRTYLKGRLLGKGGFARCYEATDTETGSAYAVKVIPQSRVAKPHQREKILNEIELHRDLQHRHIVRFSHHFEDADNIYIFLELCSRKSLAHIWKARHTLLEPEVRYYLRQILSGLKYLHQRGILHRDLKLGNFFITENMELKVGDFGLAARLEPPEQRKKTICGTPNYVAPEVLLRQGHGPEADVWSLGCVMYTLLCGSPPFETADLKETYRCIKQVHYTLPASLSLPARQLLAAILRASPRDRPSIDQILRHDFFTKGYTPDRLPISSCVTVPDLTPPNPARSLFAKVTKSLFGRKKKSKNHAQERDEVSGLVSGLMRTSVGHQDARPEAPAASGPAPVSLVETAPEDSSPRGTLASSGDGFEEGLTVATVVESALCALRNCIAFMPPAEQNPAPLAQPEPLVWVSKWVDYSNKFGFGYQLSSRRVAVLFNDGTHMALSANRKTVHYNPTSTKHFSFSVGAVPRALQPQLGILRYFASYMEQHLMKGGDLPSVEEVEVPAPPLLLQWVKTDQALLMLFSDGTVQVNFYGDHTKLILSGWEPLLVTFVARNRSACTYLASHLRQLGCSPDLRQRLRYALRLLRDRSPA

ACVR1 (human) = ACVR1 (human) (UniProt Q04771); conditions: compound 1.0 µM
TXK (human) = TXK (human) (UniProt P42681); conditions: compound 1.0 µM
TNK2 (human) = TNK2 (human) (UniProt Q07912); conditions: compound 1.0 µM
MAP2K6 (human) = MAP2K6 (human) (UniProt P52564); conditions: compound 1.0 µM
TRPM6 (human) = TRPM6 (human) (UniProt Q9BX84); conditions: compound 1.0 µM
EIF2AK2 (human) = EIF2AK2 (human) (UniProt P19525); conditions: compound 1.0 µM
FGFR1 (human) = FGFR1 (human) (UniProt P11362); conditions: compound 1.0 µM
Sequence of FGFR1 (human) (P11362 whole entry, looked up): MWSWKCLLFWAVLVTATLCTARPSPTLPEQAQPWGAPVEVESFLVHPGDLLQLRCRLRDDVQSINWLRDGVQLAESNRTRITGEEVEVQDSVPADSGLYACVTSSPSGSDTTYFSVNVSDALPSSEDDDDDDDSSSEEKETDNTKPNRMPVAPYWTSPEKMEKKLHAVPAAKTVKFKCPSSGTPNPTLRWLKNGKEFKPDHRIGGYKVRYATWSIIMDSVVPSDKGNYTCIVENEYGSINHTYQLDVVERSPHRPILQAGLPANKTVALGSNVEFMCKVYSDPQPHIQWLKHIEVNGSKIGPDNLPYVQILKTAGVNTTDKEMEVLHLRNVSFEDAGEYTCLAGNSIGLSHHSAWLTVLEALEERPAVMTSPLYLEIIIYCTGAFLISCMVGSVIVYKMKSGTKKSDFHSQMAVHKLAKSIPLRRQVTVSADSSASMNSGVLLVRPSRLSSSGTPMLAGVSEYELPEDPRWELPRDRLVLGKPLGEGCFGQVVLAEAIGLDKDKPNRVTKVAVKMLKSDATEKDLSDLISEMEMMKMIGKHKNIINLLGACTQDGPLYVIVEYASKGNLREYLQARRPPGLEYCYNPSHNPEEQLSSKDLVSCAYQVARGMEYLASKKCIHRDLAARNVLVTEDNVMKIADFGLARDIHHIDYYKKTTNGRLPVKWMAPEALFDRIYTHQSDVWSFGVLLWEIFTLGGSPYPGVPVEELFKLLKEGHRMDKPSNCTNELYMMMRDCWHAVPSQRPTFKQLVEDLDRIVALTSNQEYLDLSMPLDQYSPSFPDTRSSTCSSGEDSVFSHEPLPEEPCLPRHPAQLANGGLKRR

CDK19 (human) = CDK19 (human) (UniProt Q9BWU1); conditions: compound 1.0 µM
Sequence of CDK19 (human) (Q9BWU1 whole entry, looked up): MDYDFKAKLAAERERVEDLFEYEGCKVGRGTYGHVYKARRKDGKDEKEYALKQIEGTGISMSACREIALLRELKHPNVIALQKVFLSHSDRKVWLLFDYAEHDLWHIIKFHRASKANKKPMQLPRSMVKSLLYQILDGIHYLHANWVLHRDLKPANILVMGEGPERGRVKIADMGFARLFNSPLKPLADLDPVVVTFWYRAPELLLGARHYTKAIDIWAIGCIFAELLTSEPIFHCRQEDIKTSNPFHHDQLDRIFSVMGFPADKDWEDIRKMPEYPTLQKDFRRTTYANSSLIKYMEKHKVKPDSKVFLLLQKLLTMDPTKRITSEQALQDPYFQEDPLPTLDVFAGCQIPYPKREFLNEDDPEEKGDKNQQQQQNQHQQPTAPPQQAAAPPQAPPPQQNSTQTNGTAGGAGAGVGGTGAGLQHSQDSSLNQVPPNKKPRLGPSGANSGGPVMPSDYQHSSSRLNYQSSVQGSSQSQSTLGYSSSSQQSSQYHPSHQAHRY

PRKD3 (human) = PRKD3 (human) (UniProt O94806)
Sequence of PRKD3 (human) (O94806 whole entry, looked up): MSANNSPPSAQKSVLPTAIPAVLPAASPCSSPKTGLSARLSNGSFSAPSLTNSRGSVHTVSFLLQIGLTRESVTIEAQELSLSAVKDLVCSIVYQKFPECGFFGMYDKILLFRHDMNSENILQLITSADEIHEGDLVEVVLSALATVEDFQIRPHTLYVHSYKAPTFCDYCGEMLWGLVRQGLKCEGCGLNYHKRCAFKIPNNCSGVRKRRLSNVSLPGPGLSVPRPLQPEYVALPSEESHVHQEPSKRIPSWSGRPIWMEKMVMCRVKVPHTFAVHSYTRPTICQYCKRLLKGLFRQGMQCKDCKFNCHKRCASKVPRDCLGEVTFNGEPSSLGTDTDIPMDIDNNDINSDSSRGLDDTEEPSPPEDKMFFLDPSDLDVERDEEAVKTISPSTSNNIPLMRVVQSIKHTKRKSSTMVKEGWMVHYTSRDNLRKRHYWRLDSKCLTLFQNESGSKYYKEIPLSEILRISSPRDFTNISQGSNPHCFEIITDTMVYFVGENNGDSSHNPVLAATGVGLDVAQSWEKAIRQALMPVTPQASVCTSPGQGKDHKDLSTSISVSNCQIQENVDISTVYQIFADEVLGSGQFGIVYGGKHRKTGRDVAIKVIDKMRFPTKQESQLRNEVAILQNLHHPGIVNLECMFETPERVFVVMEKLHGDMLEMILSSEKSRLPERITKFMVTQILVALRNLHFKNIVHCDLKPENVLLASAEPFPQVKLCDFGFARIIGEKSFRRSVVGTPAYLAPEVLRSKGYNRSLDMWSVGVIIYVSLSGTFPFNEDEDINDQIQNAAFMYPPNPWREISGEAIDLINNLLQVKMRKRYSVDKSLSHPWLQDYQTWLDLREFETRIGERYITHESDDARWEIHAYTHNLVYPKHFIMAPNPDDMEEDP

[3] = system: FLT3 (human), P36888 [R834Q]; conditions: compound 1.0 µM
YES1 (human) = YES1 (human) (UniProt P07947); conditions: compound 1.0 µM
[4] = system: EGFR (human), P00533 [G719S]; conditions: compound 1.0 µM
[5] = system: PIK3CA (human), P42336 [E545A]; conditions: compound 1.0 µM
RIOK1 (human) = RIOK1 (human) (UniProt Q9BRS2); conditions: compound 1.0 µM
MAP3K15 (human) = MAP3K15 (human) (UniProt Q6ZN16); conditions: compound 1.0 µM
TAOK1 (human) = TAOK1 (human) (UniProt Q7L7X3); conditions: compound 1.0 µM
FGFR4 (human) = FGFR4 (human) (UniProt P22455); conditions: compound 1.0 µM
DMPK (human) = DMPK (human) (UniProt Q09013); conditions: compound 1.0 µM
IKBKB (human) = IKBKB (human) (UniProt O14920); conditions: compound 1.0 µM
MAPK4 (human) = MAPK4 (human) (UniProt P31152); conditions: compound 1.0 µM
TNIK (human) = TNIK (human) (UniProt Q9UKE5); conditions: compound 1.0 µM
DCLK1 (human) = DCLK1 (human) (UniProt O15075); conditions: compound 1.0 µM
CAMK2D (human) = CAMK2D (human) (UniProt Q13557); conditions: compound 1.0 µM
MYO3A (human) = MYO3A (human) (UniProt Q8NEV4); conditions: compound 1.0 µM
Sequence of MYO3A (human) (Q8NEV4 whole entry, looked up): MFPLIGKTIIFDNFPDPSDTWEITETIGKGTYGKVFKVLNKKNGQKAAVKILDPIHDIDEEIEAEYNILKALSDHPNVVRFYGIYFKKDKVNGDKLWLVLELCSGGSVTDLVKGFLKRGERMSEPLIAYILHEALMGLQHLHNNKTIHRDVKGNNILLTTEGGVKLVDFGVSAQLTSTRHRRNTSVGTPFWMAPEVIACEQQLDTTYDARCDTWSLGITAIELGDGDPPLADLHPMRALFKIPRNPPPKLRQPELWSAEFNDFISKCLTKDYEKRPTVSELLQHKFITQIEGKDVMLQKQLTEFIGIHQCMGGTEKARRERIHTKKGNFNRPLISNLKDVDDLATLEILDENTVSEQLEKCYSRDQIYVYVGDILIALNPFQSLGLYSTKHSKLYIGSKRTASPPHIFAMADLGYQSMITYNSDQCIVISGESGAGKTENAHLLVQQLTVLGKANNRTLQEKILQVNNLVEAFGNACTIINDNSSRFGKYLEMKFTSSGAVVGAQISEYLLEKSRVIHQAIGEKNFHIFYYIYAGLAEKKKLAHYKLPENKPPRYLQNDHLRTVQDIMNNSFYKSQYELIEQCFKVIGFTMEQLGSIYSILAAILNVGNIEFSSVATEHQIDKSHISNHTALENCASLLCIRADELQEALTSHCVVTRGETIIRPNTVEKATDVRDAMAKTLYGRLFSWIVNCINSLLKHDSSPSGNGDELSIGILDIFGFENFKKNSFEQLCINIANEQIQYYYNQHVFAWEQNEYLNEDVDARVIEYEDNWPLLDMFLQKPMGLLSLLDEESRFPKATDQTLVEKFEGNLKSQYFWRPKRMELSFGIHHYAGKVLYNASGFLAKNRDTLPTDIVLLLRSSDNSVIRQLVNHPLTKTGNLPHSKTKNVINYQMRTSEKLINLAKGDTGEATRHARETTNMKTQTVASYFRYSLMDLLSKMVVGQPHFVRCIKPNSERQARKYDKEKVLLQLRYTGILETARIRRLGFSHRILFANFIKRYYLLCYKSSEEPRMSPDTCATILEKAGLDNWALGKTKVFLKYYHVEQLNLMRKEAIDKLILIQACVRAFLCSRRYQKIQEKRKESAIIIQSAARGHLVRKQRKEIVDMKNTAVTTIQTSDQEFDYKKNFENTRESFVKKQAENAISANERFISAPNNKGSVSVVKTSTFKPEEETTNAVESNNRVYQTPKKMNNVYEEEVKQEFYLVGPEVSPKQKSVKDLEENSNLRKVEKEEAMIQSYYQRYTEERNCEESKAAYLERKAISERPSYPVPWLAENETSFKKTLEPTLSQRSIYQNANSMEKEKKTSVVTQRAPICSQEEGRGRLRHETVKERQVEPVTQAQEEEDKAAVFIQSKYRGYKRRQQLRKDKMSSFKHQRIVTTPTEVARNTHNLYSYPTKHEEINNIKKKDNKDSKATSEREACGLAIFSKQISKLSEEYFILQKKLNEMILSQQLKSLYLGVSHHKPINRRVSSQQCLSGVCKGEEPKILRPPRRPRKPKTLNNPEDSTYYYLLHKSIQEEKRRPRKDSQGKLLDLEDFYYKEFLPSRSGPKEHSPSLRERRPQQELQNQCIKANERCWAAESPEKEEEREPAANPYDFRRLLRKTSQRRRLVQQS

PRPF4B (human) = PRPF4B (human) (UniProt Q13523); conditions: compound 1.0 µM
HIPK4 (human) = HIPK4 (human) (UniProt Q8NE63); conditions: compound 1.0 µM
[6] = system: EGFR (human), P00533 [A750P; 747-749 del]; conditions: compound 1.0 µM
MAP2K5 (human) = MAP2K5 (human) (UniProt Q13163); conditions: compound 1.0 µM
[7] = system: KIT (human), P10721 [V559D/V654A]; conditions: compound 1.0 µM
AURKA (human) = AURKA (human) (UniProt O14965); conditions: compound 1.0 µM
MAP4K4 (human) = MAP4K4 (human) (UniProt O95819); conditions: compound 1.0 µM
BLK (human) = BLK (human) (UniProt P51451); conditions: compound 1.0 µM
Sequence of BLK (human) (P51451 whole entry, looked up): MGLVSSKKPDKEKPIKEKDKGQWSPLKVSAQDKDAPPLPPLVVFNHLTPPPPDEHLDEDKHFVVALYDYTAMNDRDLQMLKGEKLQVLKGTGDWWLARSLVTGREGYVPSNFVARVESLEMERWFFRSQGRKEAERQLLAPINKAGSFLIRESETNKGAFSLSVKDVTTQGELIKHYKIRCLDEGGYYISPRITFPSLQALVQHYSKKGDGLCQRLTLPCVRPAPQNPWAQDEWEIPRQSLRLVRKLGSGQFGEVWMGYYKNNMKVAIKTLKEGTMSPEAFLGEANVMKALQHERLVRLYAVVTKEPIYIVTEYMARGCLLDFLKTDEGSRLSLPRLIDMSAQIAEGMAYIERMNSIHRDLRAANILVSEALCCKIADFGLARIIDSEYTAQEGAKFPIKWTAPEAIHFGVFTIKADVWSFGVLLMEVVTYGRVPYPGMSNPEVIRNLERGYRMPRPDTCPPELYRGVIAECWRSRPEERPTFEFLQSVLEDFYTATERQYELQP

NEK2 (human) = NEK2 (human) (UniProt P51955); conditions: compound 1.0 µM

CN(C)C/C=C/C(=O)Nc1cccc(C(=O)Nc2ccc(Nc3nccc(-c4c(-c5ccccc5)nn5ccccc45)n3)cc2)c1
kinase still bound, per cent of control (MAP4K5 (human)): 27%
kinase still bound, per cent of control (MAK (human)): 100%
kinase still bound, per cent of control [1]: 71%
kinase still bound, per cent of control [2]: 100%
kinase still bound, per cent of control (PTK2B (human)): 85%
kinase still bound, per cent of control (PAK1 (human)): 98%
kinase still bound, per cent of control (SIK2 (human)): 42%
kinase still bound, per cent of control (EPHB1 (human)): 84%
kinase still bound, per cent of control (PLK3 (human)): 100%
kinase still bound, per cent of control (ACVR1 (human)): 3.8%
kinase still bound, per cent of control (TXK (human)): 24%
kinase still bound, per cent of control (TNK2 (human)): 100%
kinase still bound, per cent of control (MAP2K6 (human)): 56%
kinase still bound, per cent of control (TRPM6 (human)): 100%
kinase still bound, per cent of control (EIF2AK2 (human)): 92%
kinase still bound, per cent of control (FGFR1 (human)): 80%
kinase still bound, per cent of control (CDK19 (human)): 100%
Kd (PRKD3 (human)): 0.24 µM
kinase still bound, per cent of control (PRKD3 (human); compound 1.0 µM): 0%
kinase still bound, per cent of control [3]: 68%
kinase still bound, per cent of control (YES1 (human)): 12%
kinase still bound, per cent of control [4]: 1.8%
kinase still bound, per cent of control [5]: 100%
kinase still bound, per cent of control (RIOK1 (human)): 100%
kinase still bound, per cent of control (MAP3K15 (human)): 47%
kinase still bound, per cent of control (TAOK1 (human)): 40%
kinase still bound, per cent of control (FGFR4 (human)): 100%
kinase still bound, per cent of control (DMPK (human)): 59%
kinase still bound, per cent of control (IKBKB (human)): 84%
kinase still bound, per cent of control (MAPK4 (human)): 94%
kinase still bound, per cent of control (TNIK (human)): 27%
kinase still bound, per cent of control (DCLK1 (human)): 93%
kinase still bound, per cent of control (CAMK2D (human)): 100%
kinase still bound, per cent of control (MYO3A (human)): 100%
kinase still bound, per cent of control (PRPF4B (human)): 100%
kinase still bound, per cent of control (HIPK4 (human)): 70%
kinase still bound, per cent of control [6]: 1.6%
kinase still bound, per cent of control (MAP2K5 (human)): 23%
kinase still bound, per cent of control [7]: 49%
kinase still bound, per cent of control (AURKA (human)): 28%
kinase still bound, per cent of control (MAP4K4 (human)): 9.8%
kinase still bound, per cent of control (BLK (human)): 5.9%
kinase still bound, per cent of control (NEK2 (human)): 93%
